Source: the NIST ThermoML archive (doi:10.1021/acs.jced.5b00944)
Numbers after ± are expanded uncertainties.

Experiment: xn = mol fraction of the nth substance listed
Settings: for viscosity / speed of sound / mass density: 100 kPa, Liquid; for viscosity: Capillary tube (Ostwald / Ubbelohde) method; for speed of sound: Sing-around technique in a fixed-path interferometer; for mass density: Vibrating tube method; for surface tension liquid-gas: Capillary rise

CCCC[N+]1(C)CCCC1.N#CN=C=[N-] [1-butyl-1-methylpyrrolidinium dicyanamide] + O
Settings	mass density [kg/m3]	speed of sound [m/s]	surface tension liquid-gas [mN/m]	viscosity [mPa·s]
287.92 K, x2 = 0.0329	–	–	–	46.3 ± 0.7
287.92 K, x2 = 0.0994	–	–	–	44.7 ± 0.7
287.94 K, x2 = 0.2615	–	–	–	37.1 ± 0.5
287.94 K, x2 = 0.4463	–	–	–	28.9 ± 0.4
287.95 K, x2 = 0.6509	–	–	–	19.6 ± 0.3
287.95 K, x2 = 0.751	–	–	–	14.4 ± 0.2
287.97 K, x2 = 0.9	–	–	–	5.51 ± 0.07
288.15 K, x2 = 0	1019.11 ± 4.1	1834.4 ± 2.2	–	–
288.15 K, x2 = 0.0329	1019.02 ± 4.1	1834.2 ± 2.2	–	–
288.15 K, x2 = 0.0993	1018.74 ± 4	1833.5 ± 2.1	–	–
288.15 K, x2 = 0.2615	1018.26 ± 4	1832.2 ± 1.8	–	–
288.15 K, x2 = 0.4463	1017.61 ± 4	1832.1 ± 1.5	–	–
288.15 K, x2 = 0.6509	1016.78 ± 4	1831.3 ± 1.3	–	–
288.15 K, x2 = 0.751	1016.44 ± 4	1825 ± 1.1	–	–
288.15 K, x2 = 0.9	1012.13 ± 4	1752.9 ± 1.1	–	–
288.3 K, x2 = 0.0329	–	–	51.9 ± 1.3	–
288.8 K, x2 = 0.0994	–	–	52.4 ± 1.3	–
288.8 K, x2 = 0.751	–	–	54.3 ± 1.2	–
288.8 K, x2 = 0.9	–	–	54.3 ± 1.2	–
288.9 K, x2 = 0.6509	–	–	50.6 ± 1.2	–
289 K, x2 = 0.4463	–	–	51.8 ± 1.2	–
289.1 K, x2 = 0.2615	–	–	52 ± 1.3	–
297.5 K, x2 = 0.0329	–	–	51.4 ± 1.3	–
297.6 K, x2 = 0.9	–	–	53.7 ± 1.2	–
297.7 K, x2 = 0.4463	–	–	51.5 ± 1.2	–
297.8 K, x2 = 0.0994	–	–	52 ± 1.3	–
297.8 K, x2 = 0.751	–	–	53.3 ± 1.2	–
297.9 K, x2 = 0.2615	–	–	51.6 ± 1.3	–
297.9 K, x2 = 0.6509	–	–	50.1 ± 1.2	–
297.93 K, x2 = 0.0329	–	–	–	31.9 ± 0.5
297.93 K, x2 = 0.4463	–	–	–	20 ± 0.3
297.94 K, x2 = 0.2615	–	–	–	26.1 ± 0.4
297.95 K, x2 = 0.0994	–	–	–	31.1 ± 0.5
297.95 K, x2 = 0.751	–	–	–	10 ± 0.1
297.96 K, x2 = 0.6509	–	–	–	13.4 ± 0.2
297.96 K, x2 = 0.9	–	–	–	3.93 ± 0.05
298.15 K, x2 = 0	1013.48 ± 4.1	1809.6 ± 2.2	–	–
298.15 K, x2 = 0.0329	1013.44 ± 4.1	1809.6 ± 2.2	–	–
298.15 K, x2 = 0.0993	1013.07 ± 4	1808.5 ± 2.1	–	–
298.15 K, x2 = 0.2615	1012.53 ± 4	1807.6 ± 1.8	–	–
298.15 K, x2 = 0.4463	1011.78 ± 4	1808.1 ± 1.5	–	–
298.15 K, x2 = 0.6509	1010.69 ± 4	1808.3 ± 1.2	–	–
298.15 K, x2 = 0.751	1010.21 ± 4	1803.2 ± 1.1	–	–
298.15 K, x2 = 0.9	1006.14 ± 4	1740.1 ± 1	–	–
305.2 K, x2 = 0.2615	–	–	51 ± 1.3	–
305.5 K, x2 = 0.0994	–	–	51.7 ± 1.3	–
305.5 K, x2 = 0.751	–	–	52.6 ± 1.2	–
305.6 K, x2 = 0.4463	–	–	51 ± 1.2	–
305.6 K, x2 = 0.9	–	–	52.9 ± 1.2	–
306 K, x2 = 0.0329	–	–	50.8 ± 1.3	–
306 K, x2 = 0.6509	–	–	49.8 ± 1.2	–
307.99 K, x2 = 0.4463	–	–	–	14.6 ± 0.2
308 K, x2 = 0.0329	–	–	–	23.1 ± 0.4
308.01 K, x2 = 0.0994	–	–	–	22.5 ± 0.4
308.02 K, x2 = 0.751	–	–	–	7.24 ± 0.09
308.02 K, x2 = 0.9	–	–	–	2.98 ± 0.04
308.03 K, x2 = 0.2615	–	–	–	19 ± 0.3
308.03 K, x2 = 0.6509	–	–	–	9.74 ± 0.13
308.15 K, x2 = 0	1007.82 ± 4.1	1785.2 ± 2.2	–	–
308.15 K, x2 = 0.0329	1007.7 ± 4.1	1785.2 ± 2.2	–	–
308.15 K, x2 = 0.0993	1007.45 ± 4	1784.4 ± 2.1	–	–
308.15 K, x2 = 0.2615	1006.85 ± 4	1783.8 ± 1.8	–	–
308.15 K, x2 = 0.4463	1005.97 ± 4	1784.8 ± 1.5	–	–
308.15 K, x2 = 0.6509	1004.63 ± 4	1785.9 ± 1.2	–	–
308.15 K, x2 = 0.751	1003.96 ± 4	1781.8 ± 1.1	–	–
308.15 K, x2 = 0.9	999.99 ± 4	1726.6 ± 1	–	–
312.9 K, x2 = 0.2615	–	–	50.6 ± 1.3	–
313.2 K, x2 = 0.751	–	–	52 ± 1.2	–
313.5 K, x2 = 0.4463	–	–	50.4 ± 1.2	–
313.8 K, x2 = 0.0994	–	–	51.1 ± 1.3	–
313.8 K, x2 = 0.6509	–	–	49.3 ± 1.2	–
313.9 K, x2 = 0.0329	–	–	50.3 ± 1.3	–
316.2 K, x2 = 0.9	–	–	52.2 ± 1.2	–
318.02 K, x2 = 0.0329	–	–	–	17.4 ± 0.3
318.03 K, x2 = 0.4463	–	–	–	11 ± 0.2
318.04 K, x2 = 0.751	–	–	–	5.47 ± 0.07
318.05 K, x2 = 0.2615	–	–	–	14.4 ± 0.2
318.05 K, x2 = 0.9	–	–	–	2.33 ± 0.03
318.06 K, x2 = 0.0994	–	–	–	16.9 ± 0.3
318.06 K, x2 = 0.6509	–	–	–	7.37 ± 0.09
318.15 K, x2 = 0	1002.33 ± 4.1	1761 ± 2.2	–	–
318.15 K, x2 = 0.0329	1002.21 ± 4.1	1760.7 ± 2.2	–	–
318.15 K, x2 = 0.0993	1001.88 ± 4	1760 ± 2.1	–	–
318.15 K, x2 = 0.2615	1001.22 ± 4	1759.7 ± 1.8	–	–
318.15 K, x2 = 0.4463	1000.21 ± 4	1761.1 ± 1.5	–	–
318.15 K, x2 = 0.6509	998.57 ± 4	1762.5 ± 1.2	–	–
318.15 K, x2 = 0.751	997.71 ± 4	1759.7 ± 1.1	–	–
318.15 K, x2 = 0.9	993.7 ± 4	1711.2 ± 1	–	–
323.9 K, x2 = 0.0994	–	–	50.3 ± 1.3	–
324.1 K, x2 = 0.2615	–	–	49.6 ± 1.3	–
324.2 K, x2 = 0.751	–	–	51.1 ± 1.2	–
324.4 K, x2 = 0.9	–	–	51.7 ± 1.2	–
324.5 K, x2 = 0.4463	–	–	49.6 ± 1.2	–
324.6 K, x2 = 0.6509	–	–	48.9 ± 1.2	–
324.9 K, x2 = 0.0329	–	–	49.5 ± 1.3	–
333.04 K, x2 = 0.0329	–	–	–	12.1 ± 0.2
333.07 K, x2 = 0.4463	–	–	–	7.72 ± 0.11
333.07 K, x2 = 0.751	–	–	–	3.81 ± 0.05
333.07 K, x2 = 0.9	–	–	–	1.68 ± 0.02
333.08 K, x2 = 0.2615	–	–	–	10.1 ± 0.2
333.09 K, x2 = 0.6509	–	–	–	5.14 ± 0.07
333.1 K, x2 = 0.0994	–	–	–	11.7 ± 0.2
333.15 K, x2 = 0	994.14 ± 4.1	1724.7 ± 2.2	–	–
333.15 K, x2 = 0.0329	993.99 ± 4.1	1724.4 ± 2.2	–	–
333.15 K, x2 = 0.0993	993.64 ± 4	1723.9 ± 2.1	–	–
333.15 K, x2 = 0.2615	992.88 ± 4	1724 ± 1.8	–	–
333.15 K, x2 = 0.4463	991.65 ± 4	1725.6 ± 1.5	–	–
333.15 K, x2 = 0.6509	989.51 ± 4	1727 ± 1.2	–	–
333.15 K, x2 = 0.751	988.31 ± 4	1724.7 ± 1.1	–	–
333.15 K, x2 = 0.9	983.98 ± 4	1684.9 ± 1	–	–
